“And” between values parts separate entries of the source, which are not always exact repeats. Equal entries are not always repeated. Where two headings read alike, the source gives them in different places.
Columns and labels:
[1] = Concentration in brain extracts after single i.v. bolus; type: in vivo, Sprague-Dawley rats; conditions: for concentration at 0.5 h / concentration at 24 h / concentration at 6 h: Sprague-Dawley, rat, brain, intravenous
Protocol: Six rats (3 males and 3 females) were dosed per dose group. […] Plasma and brain homogenates were stored at −80° C. until analysis.
An additional 48 rats (24 males and 24 females) received a single intravenous dose via the tail vein at the same doses as mentioned above. At 30 and 360 minutes post administration, 6 rats (3 males and 3 females) per dose group, per time point were euthanized, bled via cardiac puncture, and perfused, and brains were collected. The brains were homogenized. Blood was spun, and plasma was collected. Plasma and brain homogenate were stored at −80° C.
The animals were weighed prior to dosing and received a single i.v. dose of either test compound at a volume of 5 mL/kg. Blood was collected via the venus plexus (retro-orbital) into tubes containing (K2) EDTA. No more than 0.5 mL was collected per time point. […] The brain was removed, weighed, homogenized in sterile 0.9% saline at a volume equal to its weight, and stored at −80° C.
Sample preparation. […] The amount of the test agent in the supernatant was determined by liquid chromatography tandem mass spectrometry (LC/MS/MS).
Analysis. Samples were analyzed by LC/MS/MS using an Agilent 6410 mass spectrometer coupled with an Agilent 1200 high pressure liquid chromatography (HPLC) and a CTC PAL chilled autosampler, all controlled by MassHunter software (Agilent). After separation on a hydrophilic interaction liquid chromatography (HILIC) HPLC column (Sepax) using an acetonitrile-ammonium acetate/acetic acid gradient system, peaks were analyzed by mass spectrometry (MS) using ESI ionization in multiple reaction monitoring (MRM) mode. MassHunter software was used to calculate the concentration of the test compounds in samples from the peak area using the appropriate calibration curves.
Calibration samples. Calibration curves were determined for both rat plasma and brain homogenate. Calibration samples were prepared by diluting a 50× stock solution of the test compound in PBS with blank matrix to the appropriate concentration and these samples were prepared as described above in the sample preparation.

[2] = Physical signs after oral multi-dose administration; type: in vivo, Sprague-Dawley rats; conditions: 0.6 or 6.0 mg/kg BW p.o. in three divided doses
Description: The physical signs of each animal were monitored following administration of the test compound.

[3] = tested on: BACE-1 mRNA; assay: BACE-1 mRNA levels in SHSY cells by RTPCR; type: cell-based, human; conditions: 30 minutes, TNF-α induced
Description: TNF-α was used to increase BACE expression.

[4] = tested on: 7W CHO cells; assay: Toxicity in 7W CHO cells; type: cell-based
[5] = tested on: Experimental Autoimmune Thyroiditis; assay: Experimental Autoimmune Thyroiditis (Example 16A): thyroid histopathology; type: in vivo, mice; conditions: 0.05 mg/ml in drinking water, day 21, p=0.05
Protocol: Thyroiditis was induced by injection of thyroglobulin emulsified in complete Freund's adjuvant (CFA). On days 0 and 7, female mice received subcutaneous injection of 100 μg thyroglobulin (2 injections of 50 μg each). Control mice drank water. […] Mice were sacrificed on day 21.
Thyroid histopathology. Thyroid glands were removed. One lobe was fixed in formalin for histopathology. One lobe was frozen for immunohistochemistry. The extent of lymphocytic infiltration and destruction of the thyroid gland was assessed digitally. Initially, the entire thyroid lobe was examined. […] The final score was expressed as the percent of the thyroid area infiltrated by lymphocytes and damaged. The results are shown graphically in FIG. 42. […] Photomicrographs of hematoxylin- and eosin-stained thyroids from control and anatabine-treated mice are shown in FIG. 43A (control) and FIG. 43B (anatabine-treated).

For C1=CCC(c2cccnc2)NC1 (racemic) [Anatabine, 1,2,3,6-tetrahydro-[2,3′]bipyridinyl], the “Concentration of anatabine in rat brain extract” value (“Concentration of anatabine” below) ([1]; Anatabine 0.1 mg/kg, Rat Brain, 0.5 hr, individual rats) was “<LLQ and 21 ng/mL and 34 ng/mL and 25 ng/mL and 30 ng/mL”, the “Concentration of anatabine” value ([1]; Anatabine 0.1 mg/kg, Rat Brain, 6 hr, individual rats) was 3 ng/mL and <LLQ (2×) and 5 ng/mL and 4 ng/mL and 2 ng/mL and the “Concentration of anatabine” value ([1]; Anatabine 0.1 mg/kg, Rat Brain, 24 hr, individual rats) was “<LLQ (4×) and 2 ng/mL”. The “Concentration of anatabine” value ([1]; Anatabine 0.75 mg/kg, Rat Brain, 0.5 hr, individual rats) was 317 ng/mL and 393 ng/mL, the “Concentration of anatabine” value ([1]; Anatabine 0.75 mg/kg, Rat Brain, 6 hr, individual rats) was 28 ng/mL and 19 ng/mL and 17 ng/mL and 27 ng/mL and 20 ng/mL and the “Concentration of anatabine” value ([1]; Anatabine 0.75 mg/kg, Rat Brain, 24 hr, individual rats) was “<LLQ”. The “Avg. Conc. rat brain” value ([1]; Anatabine 0.75 mg/kg, female, 24 hr) was “<LLQ”, the “Avg. Conc. rat brain, combined male and female” value ([1]; Anatabine 0.75 mg/kg, male and female, 24 hr) was “<LLQ” and the “Avg. Conc. rat brain” value ([1]; Anatabine 0.75 mg/kg, male, 24 hr) was “<LLQ”. The “Concentration of anatabine” value ([1]; Anatabine 1.0 mg/kg, Rat Brain, 0.5 hr, individual rats) was 338 ng/mL and 362 ng/mL and 393 ng/mL, the “Concentration of anatabine” value ([1]; Anatabine 1.0 mg/kg, Rat Brain, 6 hr, individual rats) was 3 ng/mL and 4 ng/mL (2×) and 8 ng/mL (2×) and <LLQ and the “Concentration of anatabine” value ([1]; Anatabine 1.0 mg/kg, Rat Brain, 24 hr, individual rats) was 2 ng/mL and <LLQ (4×). For the same compound, the “Avg. Conc. rat brain” value ([1]; Anatabine 1.0 mg/kg, female, 24 hr) was “<LLQ”, the concentration at 0.5 h ([1]; 0.1 mg/kg, Concentration of anatabine in rat brain extract, Anatabine 0.1 mg/kg, Rat Brain, 0.5 hr, individual rats) was 19 ng/mL and the concentration at 24 h ([1]; 0.1 mg/kg, Concentration of anatabine in rat brain extract, Anatabine 0.1 mg/kg, Rat Brain, 24 hr, individual rats) was 3 ng/mL. For the same compound, the concentration at 24 h ([1]; 1 mg/kg, Concentration of anatabine in rat brain extract, Anatabine 1.0 mg/kg, Rat Brain, 24 hr, individual rats) was 3 ng/mL, the “Mean concentration in rat brain extracts” value ([1]; anatabine 0.75 mg/kg i.v., 24 hr, Female) was “<LLQ” and the “Mean concentration in rat brain extracts” value ([1]; anatabine 0.75 mg/kg i.v., 24 hr, Male) was “<LLQ”. For the same compound, the “Mean concentration in rat brain extracts” value ([1]; anatabine 1.0 mg/kg i.v., 24 hr, Female) was “<LLQ”, the concentration at 0.5 h ([1]; both sexes, 0.1 mg/kg, Anatabine 0.1 mg/kg, male and female, 0.5 hr, read-out: Avg. Conc. rat brain, combined male and female) was 25.8 ng/g and the concentration at 6 h ([1]; both sexes, 0.1 mg/kg, Anatabine 0.1 mg/kg, male and female, 6 hr, read-out: Avg. Conc. rat brain, combined male and female) was 3.5 ng/g. The concentration at 24 h ([1]; both sexes, 0.1 mg/kg, Anatabine 0.1 mg/kg, male and female, 24 hr, read-out: Avg. Conc. rat brain, combined male and female) was 2.5 ng/g, the concentration at 0.5 h ([1]; both sexes, 0.75 mg/kg, Anatabine 0.75 mg/kg, male and female, 0.5 hr, read-out: Avg. Conc. rat brain, combined male and female) was 295 ng/g and the concentration at 6 h ([1]; both sexes, 0.75 mg/kg, Anatabine 0.75 mg/kg, male and female, 6 hr, read-out: Avg. Conc. rat brain, combined male and female) was 21.2 ng/g. The concentration at 6 h ([1]; both sexes, 0.75 mg/kg, Concentration of anatabine in rat brain extract, Anatabine 0.75 mg/kg, Rat Brain, 6 hr, individual rats) was 16 ng/mL, the concentration at 0.5 h ([1]; both sexes, 1 mg/kg, Anatabine 1.0 mg/kg, male and female, 0.5 hr, read-out: Avg. Conc. rat brain, combined male and female) was 334 ng/g and the concentration at 6 h ([1]; both sexes, 1 mg/kg, Anatabine 1.0 mg/kg, male and female, 6 hr, read-out: Avg. Conc. rat brain, combined male and female) was 5.4 ng/g. It also gave a concentration at 24 h ([1]; both sexes, 1 mg/kg, Anatabine 1.0 mg/kg, male and female, 24 hr, read-out: Avg. Conc. rat brain, combined male and female) of 2.5 ng/g, a concentration at 0.5 h ([1]; both sexes, 1 mg/kg, Concentration of anatabine in rat brain extract, Anatabine 1.0 mg/kg, Rat Brain, 0.5 hr, individual rats) of 349 ng/mL and a concentration at 0.5 h ([1]; female, 0.1 mg/kg, Anatabine 0.1 mg/kg, female, 0.5 hr, read-out: Avg. Conc. rat brain) of 29.7 ng/g. For the same compound, the concentration at 6 h ([1]; female, 0.1 mg/kg, Anatabine 0.1 mg/kg, female, 6 hr, read-out: Avg. Conc. rat brain) was 3.7 ng/g, the concentration at 24 h ([1]; female, 0.1 mg/kg, Anatabine 0.1 mg/kg, female, 24 hr, read-out: Avg. Conc. rat brain) was 2 ng/g and the concentration at 0.5 h ([1]; female, 0.1 mg/kg, anatabine 0.1 mg/kg i.v., 0.5 hr, Female, read-out: Mean concentration in rat brain extracts) was 29.7 ± 4.5 ng/g. The concentration at 6 h ([1]; female, 0.1 mg/kg, anatabine 0.1 mg/kg i.v., 6 hr, Female, read-out: Mean concentration in rat brain extracts) was 3.7 ± 1.5 ng/g, the concentration at 24 h ([1]; female, 0.1 mg/kg, anatabine 0.1 mg/kg i.v., 24 hr, Female, read-out: Mean concentration in rat brain extracts) was 2 ng/g and the concentration at 0.5 h ([1]; female, 0.75 mg/kg, Anatabine 0.75 mg/kg, female, 0.5 hr, read-out: Avg. Conc. rat brain) was 315 ng/g. The concentration at 6 h ([1]; female, 0.75 mg/kg, Anatabine 0.75 mg/kg, female, 6 hr, read-out: Avg. Conc. rat brain) was 21 ng/g, the concentration at 0.5 h ([1]; female, 0.75 mg/kg, anatabine 0.75 mg/kg i.v., 0.5 hr, Female, read-out: Mean concentration in rat brain extracts) was 315 ± 67.9 ng/g and the concentration at 6 h ([1]; female, 0.75 mg/kg, anatabine 0.75 mg/kg i.v., 6 hr, Female, read-out: Mean concentration in rat brain extracts) was 21 ± 6.2 ng/g. It also gave a concentration at 0.5 h ([1]; female, 1 mg/kg, Anatabine 1.0 mg/kg, female, 0.5 hr, read-out: Avg. Conc. rat brain) of 346 ng/g, a concentration at 6 h ([1]; female, 1 mg/kg, Anatabine 1.0 mg/kg, female, 6 hr, read-out: Avg. Conc. rat brain) of 6 ng/g and a concentration at 0.5 h ([1]; female, 1 mg/kg, anatabine 1.0 mg/kg i.v., 0.5 hr, Female, read-out: Mean concentration in rat brain extracts) of 346 ± 56.7 ng/g. The concentration at 6 h ([1]; female, 1 mg/kg, anatabine 1.0 mg/kg i.v., 6 hr, Female, read-out: Mean concentration in rat brain extracts) was 6 ± 2.8 ng/g, the concentration at 0.5 h ([1]; male, 0.1 mg/kg, Anatabine 0.1 mg/kg, male, 0.5 hr, read-out: Avg. Conc. rat brain) was 20 ng/g and the concentration at 6 h ([1]; male, 0.1 mg/kg, Anatabine 0.1 mg/kg, male, 6 hr, read-out: Avg. Conc. rat brain) was 3 ng/g. The concentration at 24 h ([1]; male, 0.1 mg/kg, Anatabine 0.1 mg/kg, male, 24 hr, read-out: Avg. Conc. rat brain) was 3 ng/g, the concentration at 0.5 h ([1]; male, 0.1 mg/kg, anatabine 0.1 mg/kg i.v., 0.5 hr, Male, read-out: Mean concentration in rat brain extracts) was 20 ± 1.4 ng/g and the concentration at 6 h ([1]; male, 0.1 mg/kg, anatabine 0.1 mg/kg i.v., 6 hr, Male, read-out: Mean concentration in rat brain extracts) was 3 ng/g. It also gave a concentration at 24 h ([1]; male, 0.1 mg/kg, anatabine 0.1 mg/kg i.v., 24 hr, Male, read-out: Mean concentration in rat brain extracts) of 3 ng/g, a concentration at 0.5 h ([1]; male, 0.75 mg/kg, Anatabine 0.75 mg/kg, male, 0.5 hr, read-out: Avg. Conc. rat brain) of 276 ng/g and a concentration at 6 h ([1]; male, 0.75 mg/kg, Anatabine 0.75 mg/kg, male, 6 hr, read-out: Avg. Conc. rat brain) of 21.3 ng/g. The concentration at 0.5 h ([1]; male, 0.75 mg/kg, anatabine 0.75 mg/kg i.v., 0.5 hr, Male, read-out: Mean concentration in rat brain extracts) was 276 ± 37 ng/g, the concentration at 0.5 h ([1]; male, 1 mg/kg, Anatabine 1.0 mg/kg, male, 0.5 hr, read-out: Avg. Conc. rat brain) was 323 ng/g and the concentration at 6 h ([1]; male, 1 mg/kg, Anatabine 1.0 mg/kg, male, 6 hr, read-out: Avg. Conc. rat brain) was 5 ng/g. It also gave a concentration at 24 h ([1]; male, 1 mg/kg, Anatabine 1.0 mg/kg, male, 24 hr, read-out: Avg. Conc. rat brain) of 2.5 ng/g, a concentration at 0.5 h ([1]; male, 1 mg/kg, anatabine 1.0 mg/kg i.v., 0.5 hr, Male, read-out: Mean concentration in rat brain extracts) of 323 ± 35.9 ng/g and a concentration at 6 h ([1]; male, 1 mg/kg, anatabine 1.0 mg/kg i.v., 6 hr, Male, read-out: Mean concentration in rat brain extracts) of 5 ± 2.6 ng/g. The concentration at 24 h ([1]; male, 1 mg/kg, anatabine 1.0 mg/kg i.v., 24 hr, Male, read-out: Mean concentration in rat brain extracts) was 2.5 ± 0.7 ng/g, the “appearance in brain tissue following i.v. administration” value ([1]; single i.v., rats) was “rapidly appear in brain tissue” and the adverse signs [2] was “no adverse signs were observed”. The “BACE-1 mRNA expression” value [3] was “reduced this signal in a concentration-dependent manner”, the toxicity [4] was “No toxicity was observed” and the “thyroid pathology (percent of thyroid area infiltrated and damaged)” value [5] was “developed less severe thyroiditis than control mice”.

— US20120196899A1, “METHODS AND PRODUCTS FOR TREATING INFLAMMATION” (Rock Creek Pharmaceuticals, Inc., priority 2010, published 2012)
